In patent US5905073A, “Use of 2-hydroxy-5-phenylazobenzoic acid derivatives as colon cancer chemopreventative and chemotherapeutic agents” (priority 1996, dated 1999):
“Also recorded” adds a separate entry of the source. Read-outs that look alike come from different tables or passages of the source. One block for each compound: values may come before it.

Columns and labels:
HT-29 cells [1] = assay: Proliferation of HT-29 colon cancer cells, Coulter Counter cell count; format: cell-based, human; details: for Cell No. on Day 10: average of triplicate wells; for activity at 10000 µM: read-out: % of Control Cells
Method: (§1) Cells were grown in Dulbeccos Modified Eagle medium supplemented with 10% calf serum in an atmosphere of 5% CO2 at 37° C. For growth experiments, cells were seeded into 24-well tissue culture dishes (2 cm^2 /well) at a density of 20,000 cells/well and allowed to attach for 12 hours. The growth medium was then changed and replaced with fresh media containing the test drugs.
(§2) The test drugs were dissolved in tissue culture media at the desired concentration and added to individual wells. To determine the number of cells per well, media was removed and the cells washed with phosphate buffered saline solution. The cells were then incubated 15 minutes with trypsin-EDTA solution until detached. The detached cells were then removed from the wells and counted using a Coulter Counter (Model ZBI).
(§3) The cell numbers shown in Table I are the average of triplicate culture wells.

[2] = cited from earlier work; for absorption: oral balsalazide
human colon cancer cells = assay: Colon cancer cell proliferation in vitro, comparative statements; format: cell-based
Method: as §1, §2, §3
(§4) For dose response studies a sensitive dye binding assay was adapted which allows simultaneous assay of multiple agents and doses in 96-well plates. Cells were plated and allowed to adhere for 24 hours prior to addition of the study drug. Cell densities were then determined 4 days later by fixation of the wells and staining with Sulforhodamine B dye. Optical density of the stained cultures was then determined using a 96-well plate reader at 495 nm (Skehan et al. (1990) J. Natl. Cancer Inst. 82:1107-1112).
Two such oxidation products, gentisic acid (Dull et al. (1987) Biochem. Pharmacol. 36:2467-2472) and 5-nitro-salicylate (Laffafian et al. (1991) Biochem. Pharmacol. 42:1869-1874) have been elucidated.

LS174T cells [3] = assay: Proliferation of LS174T colon cancer cells, Coulter Counter cell count; format: cell-based, human; details: for Cell No. on Day 10: average of triplicate wells; for activity at 10000 µM: 240 h
Method: as §1, §2, §3

LoVo cells = assay: Growth inhibition of LoVo colon cancer cells; format: cell-based; details: Homo sapiens, Table IV, read-out: IC50 for inhibition of human colon cancer cell proliferation
Method: as §4, with “dye.” for “dye. Optical density of the stained cultures was then determined using a 96-well plate reader at 495 nm (Skehan et al. (1990) J. Natl. Cancer Inst. 82:1107-1112).”

nitrosamine formation = details: from arginine-dependent nitric oxide; cited from earlier work
LS174T cells [4] = assay: Dose response growth inhibition of LS174T cells, Sulforhodamine B dye binding assay; format: cell-based, human; details: for IC50: Homo sapiens
Method: as §4, with “dye.” for “dye. Optical density of the stained cultures was then determined using a 96-well plate reader at 495 nm (Skehan et al. (1990) J. Natl. Cancer Inst. 82:1107-1112).”

[5] = test system: rectal mucosal reactive oxygen metabolite production; details: rectal biopsies, ulcerative colitis patients; cited from earlier work
HT-29 cells [6] = assay: Dose response growth inhibition of HT-29 cells, Sulforhodamine B dye binding assay; format: cell-based, human; details: for IC50: Homo sapiens
Method: as §4, with “dye.” for “dye. Optical density of the stained cultures was then determined using a 96-well plate reader at 495 nm (Skehan et al. (1990) J. Natl. Cancer Inst. 82:1107-1112).”

HRT-18 cells = assay: Growth inhibition of HRT-18 colon cancer cells; format: cell-based; details: Homo sapiens; HRT-18, Table IV; read-out: IC50 for inhibition of human colon cancer cell proliferation
Method: as §4, with “dye.” for “dye. Optical density of the stained cultures was then determined using a 96-well plate reader at 495 nm (Skehan et al. (1990) J. Natl. Cancer Inst. 82:1107-1112).”

LS174T cells [7] = assay: LS174T growth with freshly dissolved or pre-dissolved 5-ASA; format: cell-based; details: Homo sapiens, 96 h
Method: Cells were grown an additional 4 days prior to quantitation.

colon cancer cells = assay: 5-ASA growth inhibitory activity following hypochlorite exposure; format: cell-based; details: for inhibition at 10000 µM: 5-ASA 10 mM, read-out: Increase in Growth Inhibition
Text: Indeed certain of its therapeutic benefits in the treatment of intestinal inflammation are thought to be derived from its ability to scavenge free radicals including O2^- released from inflammatory cells and thereby reduced oxidative damage.

colon cancer incidence = details: cited from earlier work
[8] = in vivo; cited from earlier work
polyps = details: cited from earlier work; for effect on polyps: sulindac: nine familial polyposis patients, randomized placebo-controlled double-blind crossover
colon carcinogenesis = details: cited from earlier work
[9] = Homo sapiens, 240 h, HT-29, 10 mM, Day 10
[10] = Homo sapiens, 10 mM, Day 10, read-out: % of Control Cells
[11] = Table IV, read-out: IC50 for inhibition of human colon cancer cell proliferation
[12] = HT-29, Table IV, read-out: IC50 for inhibition of human colon cancer cell proliferation

SMILES: Nc1ccc(C(=O)NCCC(=O)O)cc1 [4-ABA, 4-aminobenzoyl-β-alanine]
Cell No. on Day 10 (HT-29 cells [1]; HT-29, 10 mM): 1316625
activity at 10000 µM (HT-29 cells [1]; [9]): 100%
absorption [2]: poorly absorbed
inhibition of colon cancer cell growth (in words) (human colon cancer cells): inactive
Cell No. on Day 10 (LS174T cells [3]; 10 mM): 768700
activity at 10000 µM (LS174T cells [3]; [10]): 108%

IC50 (LoVo cells): 10.2 mM
IC50 (HT-29 cells [6]; [12]): 11.9 mM
IC50 (HT-29 cells [6]; HT-29, text (FIG. 5), read-out: IC50): 11.8 mM
IC50 (HRT-18 cells): 10.5 mM
SMILES: Nc1ccc(O)c(C(=O)O)c1 [5-ASA, 5-aminosalicylic acid]
Cell No. on Day 10 (HT-29 cells [1]; HT-29, 10 mM): 512825
activity at 10000 µM (HT-29 cells [1]; [9]): 39%
inhibition at 10000 µM (HT-29 cells [1]; Homo sapiens, HT-29, 10 mM, read-out: growth inhibition): 82%
conversion to N-acetyl-5-ASA and excretion in urine ([2]; single dose of balsalazide, 96-hour period): majority
inhibition of nitrosamine formation (nitrosamine formation): inhibits nitrosamine formation
increase in cell number (LS174T cells [4]; 0.1-1.0 mM): approximately 20%
IC50 (LS174T cells [4]; [11]): 11.6 mM
IC50 (LS174T cells [4]; text (FIG. 5), read-out: IC50): 11.5 mM
Cell No. on Day 10 (LS174T cells [3]; 10 mM): 8675
inhibition at 10000 µM (LS174T cells [3]; Homo sapiens, 10 mM, read-out: growth inhibition): 85%
activity at 10000 µM (LS174T cells [3]; [10]): 1.22%
reduction of rectal mucosal reactive oxygen metabolite production [5]: over 90%
increase in cell number (HT-29 cells [6]; HT-29, 0.1-4 mM): approximately 20%
activity at 10000 µM (LS174T cells [7]; 10 mM dissolved in culture media 4 days prior, read-out: growth response relative to control cultures): 22.9%
activity at 10000 µM (LS174T cells [7]; freshly dissolved 10 mM, 4 days, read-out: growth response relative to control cells): 82.7%
inhibition at 10000 µM (colon cancer cells; Na hypochlorite 0 mM): 0%
inhibition at 10000 µM (colon cancer cells; Na hypochlorite 0.01 mM): 2%
inhibition at 10000 µM (colon cancer cells; Na hypochlorite 0.05 mM): 4%
inhibition at 10000 µM (colon cancer cells; Na hypochlorite 0.1 mM): 8%
inhibition at 10000 µM (colon cancer cells; Na hypochlorite 0.2 mM): 26%
inhibition at 10000 µM (colon cancer cells; Na hypochlorite 0.3 mM): 42%
inhibition at 10000 µM (colon cancer cells; Na hypochlorite 0.4 mM): 48%
Basal inhibitory activity (colon cancer cells; unoxidized 5ASA): 45%

IC50 (LoVo cells): 1.38 mM
IC50 (HT-29 cells [6]; [12]): 1.63 mM
IC50 (HRT-18 cells): 1.46 mM
SMILES: O=C(O)c1cc([N+](=O)[O-])ccc1O [5-NSA, 5-nitro-salicylate]
IC50 (LS174T cells [4]; [11]): 2.69 mM

SMILES: CC(=O)Oc1ccccc1C(=O)O [Ac-salicylic acid, acetyl salicylic acid]
Cell No. on Day 10 (HT-29 cells [1]; HT-29, 10 mM): 14625
activity at 10000 µM (HT-29 cells [1]; Homo sapiens, HT-29, 240 h): 1.11%
inhibition of colon cancer cell growth (in words) (human colon cancer cells): potently inhibitory
risk of colon cancer development (colon cancer incidence; retrospective study (Kune et al.)): halving
increased risk of colon cancer (colon cancer incidence; retrospective study (Paganini-Hill et al.)): 50%
Cell No. on Day 10 (LS174T cells [3]; 10 mM): 8300
activity at 10000 µM (LS174T cells [3]; Homo sapiens, read-out: % of Control Cells): 2.24%

IC50 (LoVo cells): 4.42 mM
IC50 (HT-29 cells [6]; [12]): 5.05 mM
IC50 (HRT-18 cells): 2.98 mM
SMILES: O=C(O)c1cc(O)ccc1O [Gentisate, gentisic acid]
inhibition of colon cancer cell growth (in words) (human colon cancer cells): inhibited cell growth
IC50 (LS174T cells [4]; [11]): 5.85 mM

SMILES: CC(=O)Nc1ccc(C(=O)NCCC(=O)O)cc1 [N-acetyl metabolite of 4-ABA]
absorption [2]: poorly absorbed

SMILES: CC(=O)Nc1ccc(O)c(C(=O)O)c1 [N-acetyl-5-ASA]
activity of N-acetyl metabolite of 5-ASA ([2]; in vivo): inactive

SMILES: [Na+].[O-]Cl [NaOCl, sodium hypochlorite]
Background inhibitory activity (colon cancer cells; 0.4 mM NaOCl): less than 2%

SMILES: COc1ccc2c(c1)c(CC(=O)O)c(C)n2C(=O)c1ccc(Cl)cc1 [indomethacin]
absorption / activation [8]: absorbed primarily from the upper GI tract
effect on polyps (polyps): no influence on polyp regression

SMILES: CC1=C(CC(=O)O)c2cc(F)ccc2/C1=C\c1ccc([S+](C)[O-])cc1 (stereo not shown) [sulindac]
effect on tumor incidence, dimethylhydrazine-induced (colon carcinogenesis): reduce tumor incidence only when present during carcinogen administration
absorption / activation [8]: converted to its active metabolite, sulindac sulfide, by the colonic bacteria
time to regression of polyps (polyps; nine familial polyposis patients): less than 4 months
effect on polyps (polyps): regression of polyps; also recorded: polyp growth resumed following sulindac withdrawal
